Measurements as given in patent US9023386B2, “Microspheres comprising nanocapsules containing a lipophilic drug” (Yissum Research Development Company of the Hebrew …, priority 2006, dated 2015).

Tests used:
[1] = test system: P-gp; assay: Caco-2 uptake study (apparent permeability); format: in vitro ADME; conditions: human; Caco-2, 25 μg/ml tacrolimus, Hanks buffer pH 7.4, 60 min, without verapamil
Experimental: Caco-2 monolayers (passage 73) were grown in Dulbecco's modified Eagle's medium supplemented with 10% fetal bovine serum, 1% L-glutamine, 1% nonessential amino acids, and 5% antibiotic-antimycotic solution at 37° C. in humidified air, 5% CO2 atmosphere. The culture medium was first replaced after 72 h and every 48 h thereafter. The uptake studies were conducted with monolayers between 8 to 10 days in culture. All diffusion experiments were performed over 1 h at 37° C. Prior to the experiments, the culture medium was replaced with transport medium and cell monolayers were subsequently equilibrated for 30 min at 37° C. before the uptake study. Transport medium was Hanks buffer composed of 136.89 mM NaCl, 5.36 mM KCl, 0.34 mM Na2HPO4, 0.44 mM KH2PO4, 0.41 mM MgSO4 7H2O, 19.45 mM glucose, 1.26 mM CaCl2, 0.49 mM MgCl2.6H2O, 4.17 mM NaHCO3, 10 mM HEPES, and the pH was adjusted to 7.4. […] The lysate was collected in clean tube and tacrolimus was determined by HPLC as described above. […]
The apparent permeability (Papp, cm/s) was calculated according to the following equation described by Schrickx and Fink-Gremmels (J. Schrickx and J. Fink-Gremmels. P-glycoprotein-mediated transport of oxytetracycline in the Caco-2 cell model. J. Vet Pharmacol. Therap. 30: 25-31 (2007).

[2] = immunosuppression; cited from earlier work
[3] = cited from earlier work
[4] = In-vitro stability of tacrolimus in rat intestinal juice (pH 6.5); format: in vitro ADME
Experimental: The following solutions were added sequentially to a test tube: 300 μl of freshly thawed intestinal juice, 60 μl of 0.6 M phosphate buffer, pH 6.5 (the pH of the mixture of intestinal juice) and 25 μg/ml of tacrolimus in various formulations (up to 1.5 ml). The mixtures were stirred and incubated at 37° C. over time. At given time intervals of 5, 10, 20, 30, 45, 60, 90 and 120 min, the samples were withdrawn from the incubation, mixed with 150 μl of 0.5 M hydrochloric acid and 2 ml of ethyl acetate. The resulting mixtures were stirred vigorously and centrifuged at 4000 rpm (equivalent to 3000 g) over 10 min. The extraction of tacrolimus by ethyl acetate was repeated three times to ensure total removal of the drug from the mixtures. The different ethyl acetate layers (upper layers) were transferred to clean tubes and evaporated under nitrogen to dryness. The combined residues were dissolved in 1 ml of acetonitrile, and 50 μl were injected in the HPLC under the following conditions: Mobile phase Acetonitrile 100%, Flow rate 0.5 ml/min, Wavelength—213 nm, Column—LiChrospher® 100 RP-18 (5 μm), 4/120 mm.

Papp at 60 min, 25 μg/ml [1]: 2.05 ± 0.26 ×10⁻⁶ cm/s
tacrolimus stability incubated only with PBS (Control (−)) ([4]; PBS pH 6.5, no intestinal juice, 120 min incubation): remained intact
initial tacrolimus concentration decomposed / reduced ([4]; intestinal juice with PBS pH 6.5, 37° C., 25 μg/ml tacrolimus, up to 120 min): at least 50%
SMILES: C=CC[C@@H]1/C=C(\C)C[C@H](C)C[C@H](OC)[C@H]2O[C@@](O)(C(=O)C(=O)N3CCCC[C@H]3C(=O)O[C@H](/C(C)=C/[C@@H]3CC[C@@H](O)[C@H](OC)C3)[C@H](C)[C@@H](O)CC1=O)[C@H](C)C[C@@H]2OC [tacrolimus]
potency relative to cyclosporine [2]: 10-100 times
oral bioavailability ([3]; in vivo, po): 10-25%
dose excreted unchanged in the urine ([3]; in vivo): Less than 1%
drug bound by erythrocytes ([3]; in vivo): 75-80%
whole blood concentrations relative to plasma concentrations ([3]; in vivo): 10- to 30 times
elimination half-life ([3]; liver transplant patients): about 12 hours
